In paper PMC7617869, “Molecular glues that inhibit deubiquitylase activity and inflammatory signaling” (Nature Structural & Molecular Biology, 2025):
Where “and” joins values, the source holds several entries; their conditions need not be identical. Equal entries are not always repeated.

What was measured:
[1] = test system: ISG expression in MCF10A Cas9 cells expressing BRCC45 WT; assay: MCF10A BRCC45 WT ISG expression (RT–qPCR); format: cell-based, human; set-up: scale not given here; details: BRCC45 KO+ BRCC45 WT; replicate values
Description: Supplementary Protocols 1. Experimental procedures for cell biology experiments. […]
Media supplements including human insulin solution (Santa Cruz Biotechnology, #sc-360248), cholera toxin from vibrio (Sigma Aldrich, #C8052-2MG), recombinant human EGF (PeproTech, #AF-100-15-100µg), hydrocortisone (Sigma-Aldrich, #H-0888) were used to grow MCF10A cells. The 4–12% Bis-Tris SDS-PAGE gels, cell culture media, horse serum and other materials for tissue culture were purchased from Invitrogen. LipoD293 (SigmaGen, #SL100668) was used for all the transfections to generate knock out cell lines.
Immortalised breast epithelial cell line MCF10A were cultured in 10 cm plates with Dulbecco’s Modified Eagle Medium (DMEM) + F-12 (1:1) supplemented with 5% horse serum, 100 ng/mL cholera toxin, 10 […]
Real-time quantitative PCR
1x10^5 MCF10A cells were cultured as described above and seeded into 6 well plates. Cells were left to reach ultra-confluence. Once confluent, cells were washed with PBS and starved for 30 minutes in 2 mL DMEM + F-12 (1:1) supplemented with 1% horse serum. After 30 minutes cells were pre-treated with either DMSO (0.1%) (Control and IFN only) or BRISC inhibitor (2.5 µM) for 15 minutes. After 15 minutes, hIFN2α (75 ng/mL) was added to the media and mixed. Cells were treated for 4 hours. Cells were washed with ice cold PBS and scraped with cell scrapers into 350 µL RNAlater buffer and RNA […]
#79254). Isolated RNA was quantified using a Nanodrop spectrophotometer. RNA was converted into cDNA and the complementary DNA was used for real-time quantitative PCR analysis of expression of interferon stimulated genes (ISG15, IFIT1, IFIT2, IFITM1, CXCL10 and RNA18S) using an Applied Biosystems Quantstudio 6 RT-PCR system. All experiments were carried out in triplicate.

[2] = test system: IFN-stimulated response elements (ISRE) in THP-1 cells; assay: THP-1 ISRE luciferase reporter, IFNα2 stimulation; format: cell-based, human; details: IFN + compound; replicate values
Description: THP-1 in vitro experiments
THP-1-DualTM cells (InvivoGen), derived from a human monocytic cell line, isolated from a patient with acute monocytic leukaemia, were cultured as per manufacturer’s guidance. Cells were seeded at 1x10^6 cells/mL in RPMI1640 media containing 10% fetal bovine serum (FBS), 1% penicillin-streptomycin (PS) (Gibco Laboratories) with DMSO (0.1%) (control) or in media containing JMS-175- […]
ng/mL) (Merck Life Science), ODN 2216 (1 µM) (Miltenyi Biotec), or Poly:IC (1 µg/mL) (InvivoGen).
Tofacitinib (Cambridge Biosciences) at 0.4 µM was used for comparison against a known JAK inhibitor.
Cells were centrifuged at 300 g for 5 minutes. Supernatant was removed and subjected to simultaneous study of the NF -κB pathway, by monitoring the activity of secreted alkaline phosphatase reporter (SEAP), and the IRF pathway, by assessing the activity o f a secreted Lucia luciferase using QUANTI - Blue ™ Solution and QUANTI -Luc™ 4 Lucia/Gaussia (InvivoGen), respectively, as per manufacturer’s instructions. Pelleted cells were used for FACS analysis using IFNα/β R1 APC-conjugated antibody or isotype control (Biotechne, FAB245A and IC002A), or unstained staining procedure with and without Zombie GreenTM (Biolegend). Samples were analysed using CytoFlex LX (Beckman) (50,000 live cells per condition). Median fluorescence intensity for APC channel gated on single cell live cells was analysed and compared as a percentage to control (no stimulation condition). […]

SMILES	ISG expression (Fig. 5b) [1]	ISG expression (Fig. 5c) [1]	ISG expression (Fig. 5e) [1]	ISG expression (Fig. 5f) [1]	ISG expression (Fig. 5d) [1]	ISRE luciferase reporter signal (Fig. 5a) [2]
Cn1cc(NC(=O)c2c(Cl)cccc2Cl)c(C(=O)NC2CCN(C(=O)c3c(Cl)cccc3Cl)CC2)n1 [AP-5-145]	0.8808 and 1 and 0.9871 and 1.027 and 0.974	0.8403 and 0.921 and 1.057 and 1.089 and 1.101	0.7343 and 0.7561 and 0.8094 and 1.106 and 1.138	0.7564 and 0.7183 and 0.7628 and 1.249 and 0.9766	1.013 and 1.064 and 1.1762 and 1.007 and 0.9192	5071.67 and 5115.33 and 6389 and 6090.67
O=C(NC1C2CNCC21)c1nn(C(=O)c2c(Cl)cccc2Cl)cc1NC(=O)c1c(Cl)cccc1Cl (stereo not drawn) [FX-171-C]	0.4458 and 0.5019 and 0.5077 and 0.4274 and 0.4977	0.4481 and 0.428 and 0.4516 and 0.3326 and 0.4475	0.653 and 0.6751 and 0.6387 and 0.3593 and 0.4619	0.6515 and 0.6181 and 0.6111 and 0.3694 and 0.504	0.3965 and 0.3703 and 0.3895 and 0.4078 and 0.5134	3973.33 and 4177.33 and 5441.67 and 5023.67
O=C(NC1CCNCC1)c1nn(C(=O)c2c(Cl)cccc2Cl)cc1NC(=O)c1c(Cl)cccc1Cl [JMS-175-2]	0.5319 and 0.5863 and 0.5604 and 0.6288 and 0.7746	0.5095 and 0.5499 and 0.6199 and 0.6187 and 0.6726	0.6564 and 0.7321 and 0.7949 and 0.5784 and 0.6638	0.7407 and 0.6852 and 0.6633 and 0.7235 and 0.5173	0.4933 and 0.4932 and 0.5473 and 0.4528 and 0.6627	2914 and 3263.67 and 4737.67 and 4742.67
